The molecules below were run against SIK2 (Homo sapiens, UniProt Q9H0K1) (assay: SIK2 Enzymatic Assay High Version 2 (High ATP)). Conditions: enzyme 6 nM, 6 mM ATP and 400 μM HDAC5tide (each 2× final concentration); 30 minutes pre-incubation, 2 hours; ADP-Glo Max luminescence; read-out: SIK2 high ATP IC50 (μM) (Test Example 2).
Sequence of SIK2 (Q9H0K1 whole entry, species assumed): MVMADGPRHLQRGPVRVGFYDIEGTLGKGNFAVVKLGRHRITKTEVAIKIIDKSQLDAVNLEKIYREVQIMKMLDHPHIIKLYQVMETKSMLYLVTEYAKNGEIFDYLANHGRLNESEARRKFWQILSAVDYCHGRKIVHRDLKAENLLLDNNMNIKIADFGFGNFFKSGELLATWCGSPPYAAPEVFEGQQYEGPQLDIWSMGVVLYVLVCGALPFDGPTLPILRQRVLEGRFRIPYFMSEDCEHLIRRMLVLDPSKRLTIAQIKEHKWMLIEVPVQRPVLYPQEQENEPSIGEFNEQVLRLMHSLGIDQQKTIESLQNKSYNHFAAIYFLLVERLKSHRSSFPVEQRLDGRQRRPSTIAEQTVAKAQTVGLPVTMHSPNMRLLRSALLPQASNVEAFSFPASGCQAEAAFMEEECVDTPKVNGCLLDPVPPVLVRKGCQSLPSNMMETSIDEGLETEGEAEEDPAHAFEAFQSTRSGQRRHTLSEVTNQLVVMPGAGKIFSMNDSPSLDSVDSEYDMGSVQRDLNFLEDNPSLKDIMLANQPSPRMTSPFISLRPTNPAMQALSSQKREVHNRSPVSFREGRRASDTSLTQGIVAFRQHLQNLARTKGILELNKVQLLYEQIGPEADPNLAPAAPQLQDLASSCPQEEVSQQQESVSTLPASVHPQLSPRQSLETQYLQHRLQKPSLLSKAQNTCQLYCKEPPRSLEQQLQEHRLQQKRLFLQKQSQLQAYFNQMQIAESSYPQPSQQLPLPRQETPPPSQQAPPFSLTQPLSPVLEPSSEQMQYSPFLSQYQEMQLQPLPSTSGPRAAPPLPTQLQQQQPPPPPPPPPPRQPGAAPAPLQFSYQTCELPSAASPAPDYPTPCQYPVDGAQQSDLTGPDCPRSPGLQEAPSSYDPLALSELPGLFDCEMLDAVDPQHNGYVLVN
Format: biochemical
How it was run: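 At room temperature, enzyme (6 nM, 2× final) was preincubated with compound for 30 min, then 6 mM ATP and 400 μM HDAC5tide (both 2× final) were added for 2 h. ADP formed was measured by ADP-Glo Max (2 h reagent, 1 h detection) using luminescence.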
In the case of `Cc1cc(-c2ccn3nc(NC(=O)C4CC4)cc3c2)c(O[C@H]2CCNC2)cn1` [Example 277, N-[5-[2-methyl-5-[(3S)-pyrrolidin-3-yl]oxy-4-pyridyl]pyrazolo[1,5-a]pyridin-2-yl]cyclopropanecarboxamide], the IC50 is reported as 0.0139 µM. With `Cc1cc(-c2ccn3nc(Nc4cc(C)nc(C)n4)cc3c2)c(O[C@@H]2CNC[C@@H]2F)cn1` [Example 278, N-(2,6-dimethylpyrimidin-4-yl)-5-[5-[(3R,4S)-4-fluoropyrrolidin-3-yl]oxy-2-methyl-4-pyridyl]pyrazolo[1,5-a]pyridin-2-amine] the IC50 was 0.0025 µM. Work on `Cc1cc(-c2ccn3nc(NC(=O)C4CC4)cc3c2)c(O[C@@H]2CNC[C@@H]2F)cn1` [Example 279, N-[5-[5-[(3R,4S)-4-fluoropyrrolidin-3-yl]oxy-2-methyl-4-pyridyl]pyrazolo[1,5-a]pyridin-2-yl]cyclopropanecarboxamide] yielded an IC50 of 0.0032 µM. For `CC#Cc1cc(-c2ccn3nc(NC(=O)C4CC4)cc3c2)c(O[C@H]2CCNC2)cn1` [Example 280, N-[5-[2-prop-1-ynyl-5-[(3S)-pyrrolidin-3-yl]oxy-4-pyridyl]pyrazolo[1,5-a]pyridin-2-yl]cyclopropanecarboxamide], the IC50 was 0.0032 µM. `CC#Cc1cc(-c2ccn3nc(NC(=O)C4CC4)cc3c2)c(O[C@@H]2CNC[C@@H]2F)cn1` [Example 281, N-[5-[5-[(3R,4S)-4-fluoropyrrolidin-3-yl]oxy-2-prop-1-ynyl-4-pyridyl]pyrazolo[1,5-a]pyridin-2-yl]cyclopropanecarboxamide] showed an IC50 of 0.00102 µM. Molecule `Cc1cc(-c2ccn3nc(Nc4cc(C)c(=O)n(CC(C)C)n4)cc3c2)c(OCC(C)(C)O)cn1` [Example 282, 6-[[5-[5-(2-hydroxy-2-methyl-propoxy)-2-methyl-4-pyridyl]pyrazolo[1,5-a]pyridin-2-yl]amino]-2-isobutyl-4-methyl-pyridazin-3-one] has an IC50 of 0.00608 µM. Molecule `Cc1cc(-c2ccn3nc(Nc4cc(C)c(=O)n(CCOC(F)F)n4)cc3c2)c(O[C@H]2CC[C@H](O)CC2)cn1` [Example 283, 2-[2-(difluoromethoxy)ethyl]-6-[[5-[5-(4-hydroxycyclohexoxy)-2-methyl-4-pyridyl]pyrazolo[1,5-a]pyridin-2-yl]amino]-4-methyl-pyridazin-3-one] has an IC50 of 0.00429 µM. `Cc1cc(-c2ccn3nc(Nc4cc(C)c(=O)n(CCOC(F)F)n4)cc3c2)c(OCC(C)(C)O)cn1` [Example 284, 2-[2-(difluoromethoxy)ethyl]-6-[[5-[5-(2-hydroxy-2-methyl-propoxy)-2-methyl-4-pyridyl]pyrazolo[1,5-a]pyridin-2-yl]amino]-4-methyl-pyridazin-3-one] showed an IC50 of 0.0188 µM. For `Cc1cc(-c2ccn3nc(Nc4cc(C)nc(N5CCCC5)n4)cc3c2)c(OCC(C)(C)O)cn1` [Example 285, 2-methyl-1-[[6-methyl-4-[2-[(6-methyl-2-pyrrolidin-1-yl-pyrimidin-4-yl)amino]pyrazolo[1,5-a]pyridin-5-yl]-3-pyridyl]oxy]propan-2-ol], the IC50 was 0.0109 µM. In the case of `Cc1cc(-c2ccn3nc(Nc4cc(C)nc(N5CCOCC5)n4)cc3c2)c(OCC(C)(C)O)cn1` [Example 286, 2-methyl-1-[[6-methyl-4-[2-[(6-methyl-2-morpholino-pyrimidin-4-yl)amino]pyrazolo[1,5-a]pyridin-5-yl]-3-pyridyl]oxy]propan-2-ol], the IC50 is reported as 0.0166 µM. In the case of `Cc1cc(-c2ccn3nc(Nc4cc(C)nc(N5CCCC5)n4)cc3c2)c(O[C@H]2CC[C@H](O)CC2)cn1` [Example 287, 4-[[6-methyl-4-[2-[(6-methyl-2-pyrrolidin-1-yl-pyrimidin-4-yl)amino]pyrazolo[1,5-a]pyridin-5-yl]-3-pyridyl]oxy]cyclohexanol], the IC50 is reported as 0.00144 µM. Molecule `Cc1cc(-c2ccn3nc(Nc4cc(C)nc(N5CCOCC5)n4)cc3c2)c(O[C@H]2CC[C@H](O)CC2)cn1` [Example 288, 4-[[6-methyl-4-[2-[(6-methyl-2-morpholino-pyrimidin-4-yl)amino]pyrazolo[1,5-a]pyridin-5-yl]-3-pyridyl]oxy]cyclohexanol] has an IC50 of 0.00696 µM. With `Cc1cc(-c2ccn3nc(Nc4cnc5cc[nH]c5n4)cc3c2)c(O[C@H]2CC[C@H](O)CC2)cn1` [Example 289, 4-[[6-methyl-4-[2-(5H-pyrrolo[2,3-b]pyrazin-3-ylamino)pyrazolo[1,5-a]pyridin-5-yl]-3-pyridyl]oxy]cyclohexanol] the IC50 was 0.00114 µM. `Cc1cc(-c2ccn3nc(Nc4cnc5cc[nH]c5n4)cc3c2)c(OCC(C)(C)O)cn1` [Example 291, 2-methyl-1-[[6-methyl-4-[2-(5H-pyrrolo[2,3-b]pyrazin-3-ylamino)pyrazolo[1,5-a]pyridin-5-yl]-3-pyridyl]oxy]propan-2-ol] gave an IC50 of 0.00809 µM. Work on `Cc1cc(-c2ccn3nc(Nc4nn(C)c5ncccc45)cc3c2)c(OCC(C)(C)O)cn1` [Example 292, 2-methyl-1-[[6-methyl-4-[2-[(1-methylpyrazolo[3,4-b]pyridin-3-yl)amino]pyrazolo[1,5-a]pyridin-5-yl]-3-pyridyl]oxy]propan-2-ol] yielded an IC50 of 0.0187 µM. For `CCn1nc(Nc2cc3cc(-c4cc(C)ncc4OC[C@H]4OCC[C@@H]4O)ccn3n2)cc(C)c1=O` [Example 293, 2-ethyl-6-[[5-[5-[[(2R,3S)-3-hydroxytetrahydrofuran-2-yl]methoxy]-2-methyl-4-pyridyl]pyrazolo[1,5-a]pyridin-2-yl]amino]-4-methyl-pyridazin-3-one], the IC50 was less than 0.000847 µM. `Cc1cc(-c2ccn3nc(Nc4cc(C)nc(N5CCOCC5)n4)cc3c2)c(OC[C@H]2OCC[C@@H]2O)cn1` [Example 294, (2R,3S)-2-[[6-methyl-4-[2-[(6-methyl-2-morpholino-pyrimidin-4-yl)amino]pyrazolo[1,5-a]pyridin-5-yl]-3-pyridyl]oxymethyl]tetrahydrofuran-3-ol] was tested, and the IC50 was 0.0138 µM. In the case of `Cc1cc(-c2ccn3nc(Nc4cnc(C(F)F)cn4)cc3c2)c(OC[C@H]2OCC[C@@H]2O)cn1` [Example 295, (2R,3S)-2-[[4-[2-[[5-(difluoromethyl)pyrazin-2-yl]amino]pyrazolo[1,5-a]pyridin-5-yl]-6-methyl-3-pyridyl]oxymethyl]tetrahydrofuran-3-ol], the IC50 is reported as 0.0176 µM. With `Cc1cc(-c2ccn3nc(Nc4cc(C)c(=O)n(CCOC(F)F)n4)cc3c2)c(OC[C@H]2OCC[C@@H]2O)cn1` [Example 296, 2-[2-(difluoromethoxy)ethyl]-6-[[5-[5-[[(2R,3S)-3-hydroxytetrahydrofuran-2-yl]methoxy]-2-methyl-4-pyridyl]pyrazolo[1,5-a]pyridin-2-yl]amino]-4-methyl-pyridazin-3-one] the IC50 was 0.00698 µM. For `Cc1cc(-c2ccn3nc(Nc4cncc(C)n4)cc3c2)c(OC[C@H]2OCC[C@@H]2O)cn1` [Example 297, (2R,3S)-2-[[6-methyl-4-[2-[(6-methylpyrazin-2-yl)amino]pyrazolo[1,5-a]pyridin-5-yl]-3-pyridyl]oxymethyl]tetrahydrofuran-3-ol], the IC50 was 0.00781 µM. `Cc1cc(-c2ccn3nc(Nc4cc(C)nc(C(C)(C)C)n4)cc3c2)c(OC[C@H]2OCC[C@@H]2O)cn1` [Example 298, (2R,3S)-2-[[4-[2-[(2-tert-butyl-6-methyl-pyrimidin-4-yl)amino]pyrazolo[1,5-a]pyridin-5-yl]-6-methyl-3-pyridyl]oxymethyl]tetrahydrofuran-3-ol] showed an IC50 of 0.00667 µM. Molecule `Cc1cc(-c2ccn3nc(Nc4nn(C)c5ccccc45)cc3c2)c(OC[C@H]2OCC[C@@H]2O)cn1` [Example 299, (2R,3S)-2-[[6-methyl-4-[2-[(1-methylindazol-3-yl)amino]pyrazolo[1,5-a]pyridin-5-yl]-3-pyridyl]oxymethyl]tetrahydrofuran-3-ol] has an IC50 of 0.00675 µM. Molecule `CC#Cc1cc(-c2ccn3nc(Nc4cnn(C)c4)cc3c2)c(OC[C@H]2OCC[C@@H]2O)cn1` [Example 300, (2R,3S)-2-[[4-[2-[(1-methylpyrazol-4-yl)amino]pyrazolo[1,5-a]pyridin-5-yl]-6-prop-1-ynyl-3-pyridyl]oxymethyl]tetrahydrofuran-3-ol] has an IC50 of 0.00639 µM. Molecule `CC#Cc1cc(-c2ccn3nc(Nc4ccn(C)n4)cc3c2)c(OC[C@H]2OCC[C@@H]2O)cn1` [Example 301, (2R,3S)-2-[[4-[2-[(1-methylpyrazol-3-yl)amino]pyrazolo[1,5-a]pyridin-5-yl]-6-prop-1-ynyl-3-pyridyl]oxymethyl]tetrahydrofuran-3-ol] has an IC50 of 0.00773 µM. For `CC#Cc1cc(-c2ccn3nc(Nc4cc(C)nc(C)n4)cc3c2)c(OC[C@]23CN[C@H](CO2)C3)cn1` [Example 302, N-(2,6-dimethylpyrimidin-4-yl)-5-[5-[[(1S,4S)-5-oxa-2-azabicyclo[2.2.1]heptan-4-yl]methoxy]-2-prop-1-ynyl-4-pyridyl]pyrazolo[1,5-a]pyridin-2-amine], the IC50 was 0.000975 µM. Molecule `Cc1cc(Nc2cc3cc(-c4cc(Cl)ncc4OC[C@]45CN[C@H](CO4)C5)ccn3n2)nc(C)n1` [Example 303, 5-[2-chloro-5-[[(1S,4S)-5-oxa-2-azabicyclo[2.2.1]heptan-4-yl]methoxy]-4-pyridyl]-N-(2,6-dimethylpyrimidin-4-yl)pyrazolo[1,5-a]pyridin-2-amine] has an IC50 of 0.000971 µM. `Cc1cc(-c2ccn3nc(Nc4cc(C)c(=O)n(C)n4)cc3c2)c(O[C@H]2CC[C@@H](S(C)(=O)=O)CC2)cn1` [Example 305, 2,4-dimethyl-6-((5-(2-methyl-5-(((1s,4s)-4-(methylsulfonyl)cyclohexyl)oxy)pyridin-4-yl)pyrazolo[1,5-a]pyridin-2-yl)amino)pyridazin-3(2H)-one] showed an IC50 of 0.00117 µM. Molecule `Cc1cc(-c2ccn3nc(Nc4ccc5cc[nH]c5n4)cc3c2)c(OCC(C)(C)C#N)cn1` [Example 307, 2,2-dimethyl-3-[[6-methyl-4-[2-(1H-pyrrolo[2,3-b]pyridin-6-ylamino)pyrazolo[1,5-a]pyridin-5-yl]-3-pyridyl]oxy]propanenitrile] has an IC50 of 0.00132 µM. `Cc1cc(-c2ccn3nc(Nc4ccc5nccn5n4)cc3c2)c(OCC(C)(C)C#N)cn1` [Example 308, 3-[[4-[2-(imidazo[1,2-b]pyridazin-6-ylamino)pyrazolo[1,5-a]pyridin-5-yl]-6-methyl-3-pyridyl]oxy]-2,2-dimethyl-propanenitrile] was tested, and the IC50 was 0.00171 µM.
